From PubChem BioAssay AID1963986 (Molecular Pharmacology Branch, DTP, NCI, 2024)
Each block holds one compound with its values, some of them ahead of it.

System: 171881-019-R-J1-PDC tumor spheroid viability
Assay: Anticancer human tumor 171881-019-R-J1-PDC patient-derived invasive breast carcinoma cell line growth inhibition [PI3K]
Conditions: spheroids with HUVEC and MSC; for IC50: curve of first compound; for viability, T/C: stronger effect = lower value
Procedure, shortened: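 High-throughput combination screen: PI3K inhibitors crossed with targeted small molecules on complex spheroids of tumor cells, HUVEC and MSCs at 37 degrees C, 5% CO2. Top concentration was at or near clinical Cmax (otherwise 10 microM), with half-log decrements.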

[1] = second compound 0.00316 µM, first compound 0.0316 µM
[2] = second compound 0.00316 µM, first compound 0.1 µM
[3] = second compound 0.00316 µM, first compound 0.316 µM
[4] = second compound 0.00316 µM, first compound 1 µM
[5] = second compound 0.01 µM, first compound 0.0316 µM
[6] = second compound 0.01 µM, first compound 0.1 µM
[7] = second compound 0.01 µM, first compound 0.316 µM
[8] = second compound 0.01 µM, first compound 1 µM
[9] = second compound 0.0316 µM, first compound 0.00316 µM
[10] = second compound 0.0316 µM, first compound 0.01 µM
[11] = second compound 0.0316 µM, first compound 0.0316 µM
[12] = second compound 0.0316 µM, first compound 0.1 µM
[13] = second compound 0.0316 µM, first compound 0.316 µM
[14] = second compound 0.0316 µM, first compound 1 µM
[15] = second compound 0.1 µM, first compound 0.00316 µM
[16] = second compound 0.1 µM, first compound 0.01 µM
[17] = second compound 0.1 µM, first compound 0.0316 µM
[18] = second compound 0.1 µM, first compound 0.1 µM
[19] = second compound 0.1 µM, first compound 0.316 µM
[20] = second compound 0.1 µM, first compound 1 µM
[21] = second compound 0.316 µM, first compound 0.00316 µM
[22] = second compound 0.316 µM, first compound 0.01 µM
[23] = second compound 0.316 µM, first compound 0.0316 µM
[24] = second compound 0.316 µM, first compound 0.1 µM
[25] = second compound 0.316 µM, first compound 0.316 µM
[26] = second compound 0.316 µM, first compound 1 µM
[27] = second compound 1 µM, first compound 0.00316 µM
[28] = second compound 1 µM, first compound 0.01 µM
[29] = second compound 1 µM, first compound 0.0316 µM
[30] = second compound 1 µM, first compound 0.1 µM
[31] = second compound 1 µM, first compound 0.316 µM
[32] = second compound 1 µM, first compound 1 µM
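Also: spheroids exposed to compound for 7 days before viability read.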
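For viability, T/C in this document: 100% = DMSO vehicle-treated spheroids.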

IC50 (second compound 0.00316 µM): > 1000 nM | IC50 (second compound 0.01 µM): > 1000 nM | IC50 (second compound 0.0316 µM): < 3.16 nM | IC50 (second compound 0.1 µM): < 3.16 nM | IC50 (second compound 0.316 µM): < 3.16 nM | IC50 (second compound 1 µM): < 3.16 nM
Structure (SMILES): CCN1CCN(Cc2ccc(Nc3ncc(F)c(-c4cc(F)c5nc(C)n(C(C)C)c5c4)n3)nc2)CC1 + COc1c(OCCCN2CCOCC2)ccc2c3n(c(=NC(=O)c4cnc(N)nc4)nc12)CCN3
viability, T/C (second compound 0.00316 µM, first compound 0.00316 µM): 71.9% | viability, T/C (second compound 0.00316 µM, first compound 0.01 µM): 73.1% | viability, T/C [1]: 83.8% | viability, T/C [2]: 80.4% | viability, T/C [3]: 93.8% | viability, T/C [4]: 99.6% | viability, T/C (second compound 0.01 µM, first compound 0.00316 µM): 48.9% | viability, T/C (second compound 0.01 µM, first compound 0.01 µM): 56.9% | viability, T/C [5]: 53.6% | viability, T/C [6]: 63.8% | viability, T/C [7]: 69% | viability, T/C [8]: 83.2% | viability, T/C [9]: 27.4% | viability, T/C [10]: 31.5% | viability, T/C [11]: 33.8% | viability, T/C [12]: 36.9% | viability, T/C [13]: 44.6% | viability, T/C [14]: 50.6% | viability, T/C [15]: 10.5% | viability, T/C [16]: 10.2% | viability, T/C [17]: 12.2% | viability, T/C [18]: 12.8% | viability, T/C [19]: 16% | viability, T/C [20]: 23.8% | viability, T/C [21]: 2.23% | viability, T/C [22]: 2.11% | viability, T/C [23]: 2.24% | viability, T/C [24]: 2.94% | viability, T/C [25]: 4.39% | viability, T/C [26]: 7.79% | viability, T/C [27]: 0.86% | viability, T/C [28]: 1.08% | viability, T/C [29]: 1.81% | viability, T/C [30]: 1.03% | viability, T/C [31]: 1.58% | viability, T/C [32]: 2.28%

IC50 (second compound 0.0316 µM): 12.4 nM | IC50 (second compound 0.1 µM): 9.88 nM | IC50 (second compound 0.316 µM): 10.3 nM | IC50 (second compound 1 µM): 8.02 nM | IC50 (second compound 3.16 µM): 4.14 nM | IC50 (second compound 10 µM): 1.21 nM
Structure (SMILES): CC(C)n1nc(-c2ccc3oc(N)nc3c2)c2c(N)ncnc21 + CC(Nc1ncnc2nc[nH]c12)c1cc2cccc(Cl)c2c(=O)n1-c1ccccc1
viability, T/C (second compound 0.0316 µM, first compound 0.000316 µM): 89.7% | viability, T/C (second compound 0.0316 µM, first compound 0.001 µM): 75.7% | viability, T/C [9]: 86.5% | viability, T/C [10]: 53.3% | viability, T/C [11]: 22.7% | viability, T/C [12]: 3.39% | viability, T/C (second compound 0.1 µM, first compound 0.000316 µM): 89.8% | viability, T/C (second compound 0.1 µM, first compound 0.001 µM): 90.5% | viability, T/C [15]: 71.8% | viability, T/C [16]: 51.1% | viability, T/C [17]: 21% | viability, T/C [18]: 4.54% | viability, T/C (second compound 0.316 µM, first compound 0.000316 µM): 96.2% | viability, T/C (second compound 0.316 µM, first compound 0.001 µM): 94.3% | viability, T/C [21]: 78.2% | viability, T/C [22]: 50.7% | viability, T/C [23]: 20.4% | viability, T/C [24]: 3.31% | viability, T/C (second compound 1 µM, first compound 0.000316 µM): 93.1% | viability, T/C (second compound 1 µM, first compound 0.001 µM): 89.3% | viability, T/C [27]: 67.4% | viability, T/C [28]: 47.3% | viability, T/C [29]: 18.5% | viability, T/C [30]: 3.26% | viability, T/C (second compound 3.16 µM, first compound 0.000316 µM): 84.5% | viability, T/C (second compound 3.16 µM, first compound 0.001 µM): 71.8% | viability, T/C (second compound 3.16 µM, first compound 0.00316 µM): 53.8% | viability, T/C (second compound 3.16 µM, first compound 0.01 µM): 37% | viability, T/C (second compound 3.16 µM, first compound 0.0316 µM): 13.3% | viability, T/C (second compound 3.16 µM, first compound 0.1 µM): 3.36% | viability, T/C (second compound 10 µM, first compound 0.000316 µM): 55.8% | viability, T/C (second compound 10 µM, first compound 0.001 µM): 52.1% | viability, T/C (second compound 10 µM, first compound 0.00316 µM): 40% | viability, T/C (second compound 10 µM, first compound 0.01 µM): 22.2% | viability, T/C (second compound 10 µM, first compound 0.0316 µM): 7.46% | viability, T/C (second compound 10 µM, first compound 0.1 µM): 3.13%

IC50 (second compound 0.00316 µM): 187 nM | IC50 (second compound 0.01 µM): 99.6 nM | IC50 (second compound 0.0316 µM): < 31.6 nM | IC50 (second compound 0.1 µM): < 31.6 nM | IC50 (second compound 0.316 µM): < 31.6 nM | IC50 (second compound 1 µM): < 31.6 nM
Structure (SMILES): C#Cc1c(F)ccc2cc(O)cc(-c3ncc4c(N5CC6CCC(C5)N6)nc(OCC56CCCN5CC(F)C6)nc4c3F)c12 (stereo unspecified) + CC(Nc1ccc2c(c1)OCCn1cc(N3C(=O)OCC3C(F)F)nc1-2)C(N)=O
viability, T/C [1]: 72.4% | viability, T/C [2]: 57.1% | viability, T/C [3]: 44.4% | viability, T/C [4]: 32.8% | viability, T/C (second compound 0.00316 µM, first compound 3.16 µM): 28.8% | viability, T/C (second compound 0.00316 µM, first compound 10 µM): 22% | viability, T/C [5]: 65% | viability, T/C [6]: 51.7% | viability, T/C [7]: 32% | viability, T/C [8]: 27.5% | viability, T/C (second compound 0.01 µM, first compound 3.16 µM): 22.2% | viability, T/C (second compound 0.01 µM, first compound 10 µM): 17.1% | viability, T/C [11]: 42.7% | viability, T/C [12]: 37.2% | viability, T/C [13]: 26.4% | viability, T/C [14]: 18.3% | viability, T/C (second compound 0.0316 µM, first compound 3.16 µM): 14.9% | viability, T/C (second compound 0.0316 µM, first compound 10 µM): 12.7% | viability, T/C [17]: 31.1% | viability, T/C [18]: 23.6% | viability, T/C [19]: 15.6% | viability, T/C [20]: 11.9% | viability, T/C (second compound 0.1 µM, first compound 3.16 µM): 9.09% | viability, T/C (second compound 0.1 µM, first compound 10 µM): 8.33% | viability, T/C [23]: 21.1% | viability, T/C [24]: 15.7% | viability, T/C [25]: 10.4% | viability, T/C [26]: 7.74% | viability, T/C (second compound 0.316 µM, first compound 3.16 µM): 6.88% | viability, T/C (second compound 0.316 µM, first compound 10 µM): 6.22% | viability, T/C [29]: 17.2% | viability, T/C [30]: 12.3% | viability, T/C [31]: 7.9% | viability, T/C [32]: 7.17% | viability, T/C (second compound 1 µM, first compound 3.16 µM): 5.55% | viability, T/C (second compound 1 µM, first compound 10 µM): 4.36%
